# Laboratory results as given in ChEMBL document CHEMBL1201862, “PubChem BioAssay data set” (2004).
# Counter-ions that a name gives are not always drawn. Active and inactive are the calls of the source.
# Legend:
# [1] = cytotoxicity toward Colo320 cells – cell-based, CellTiter-Glo luminescence, IC50, dose response (AID 1117334); format: functional; details: COLO 320
# [2] = HCT116 cell viability decrease, GSK3B pretreatment – CellTiter-Glo, IC50, dose response (AID 1117339); format: functional; details: HCT-116
# [3] = Concentration-dependent survival of SW480 colon cancer line, luminescence detection with CellTiter-Glo, half-maximal inhibitory concentration (AID 1117338); format: functional
# [4] = cytotoxicity toward HT-29 cells – cell-based, CellTiter-Glo luminescence, IC50, dose response (AID 1117330); format: functional
# [5] = RKO cell viability reduction, dose response, CellTiter-Glo luminescence (AID 1117322); format: functional
# [6] = CellTiter-Glo luminescent dose response of DLD-1 viability loss (AID 1117352); format: functional
# [7] = SNU-C1 cell viability reduction, dose response, CellTiter-Glo luminescence (AID 1117323); format: functional, cell-based
# [8] = target: Aryl hydrocarbon receptor (Homo sapiens, UniProt P35869); experiment: Luminescence-based cell-based high throughput dose response assay for activators of the Aryl Hydrocarbon Receptor (AHR). [Related pubchem assays: 2796 (Primary screen (AHR activators in singlicate)), 2845 (Confirmation screen (AHR activators in triplicate)), 434939 (Counterscreen (PXR activators in triplicate)), 2804 (Summary (AHR activators))]; format: ADME
# [9] = HepG2 cell cytotoxicity, dose response, cytotoxicity control, plate reader, dry powder, set 6 (AID 743311); format: functional, cell-based
# [10] = A549 cell cytotoxicity, dose response, cytotoxicity control, plate reader, dry powder, set 6 (AID 743312); format: functional, cell-based
# cells [11] = details: HEK293
# Vero [12] = experiment: West Nile virus antiviral activity, cell-based, CPE readout (AID 1621); format: functional; details: Chlorocebus sabaeus
# [13] = target: Mitogen-activated protein kinase 10 (Homo sapiens, UniProt P53779); experiment: Dose response biochemical screening assay for inhibitors of c-Jun N-Terminal Kinase 3 (JNK3). [Related pubchem assays: 746 ]
# cells [14] = format: functional, cell-based; details: INS-1E
# [15] = Dose-response inhibition of insulin secretion in a rat insulinoma line at 5 mM glucose (AID 1117331); format: functional, cell-based; details: INS-1E
# [16] = HEK293 cell cytotoxicity, dose response, cytotoxicity control, ATP luminescence, dry powder, set 3 (AID 743131); format: functional, cell-based
# [17] = HepG2 cell cytotoxicity, dose response, cytotoxicity control, ATP luminescence, dry powder, set 2 (AID 743129); format: functional, cell-based
# Cysteine protease ATG4B = target: T1, Cysteine protease ATG4B (Homo sapiens, UniProt Q9Y4P1); format: functional;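 also: Fluorescence-based dose-response confirmation assay measuring inhibition of ATG4B activity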
# T1 sequence (Q9Y4P1 whole entry): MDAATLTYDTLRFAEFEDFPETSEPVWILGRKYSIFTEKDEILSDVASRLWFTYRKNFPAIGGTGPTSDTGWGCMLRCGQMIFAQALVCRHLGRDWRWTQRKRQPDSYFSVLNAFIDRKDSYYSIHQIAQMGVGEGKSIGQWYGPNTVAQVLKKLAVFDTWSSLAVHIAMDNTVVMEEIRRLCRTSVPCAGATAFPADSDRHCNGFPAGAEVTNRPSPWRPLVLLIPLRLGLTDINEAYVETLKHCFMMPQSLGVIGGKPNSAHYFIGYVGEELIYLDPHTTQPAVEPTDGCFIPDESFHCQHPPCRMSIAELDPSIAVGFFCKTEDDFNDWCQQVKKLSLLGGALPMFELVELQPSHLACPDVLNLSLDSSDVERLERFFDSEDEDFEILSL
# [18] = target: Glutathione-S-transferase (Schistosoma japonicum, UniProt Q26513); experiment: biotin-GST/anti-GST TR-FRET signal inhibitors, dose response, artefact control for Vif-APOBEC3G degradation inhibitor project, biochemical (AID 1117362); format: functional
# Glutathione-S-transferase, sequence (Q26513 whole entry): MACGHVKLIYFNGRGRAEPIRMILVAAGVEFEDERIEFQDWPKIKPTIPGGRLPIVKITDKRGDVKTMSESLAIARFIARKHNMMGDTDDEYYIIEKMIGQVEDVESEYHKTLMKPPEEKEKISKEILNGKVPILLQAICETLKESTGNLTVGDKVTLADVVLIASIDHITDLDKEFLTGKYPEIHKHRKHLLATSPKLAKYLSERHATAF
# Genome polyprotein = Genome polyprotein (dengue virus type 2, UniProt P29990); experiment: Dengue-2 NS5 methyltransferase inhibitors, primary screen, biochemical, confirmation dose response (AID 588689); format: functional
# Genome polyprotein, sequence (P29990 2492-3391 limits assumed): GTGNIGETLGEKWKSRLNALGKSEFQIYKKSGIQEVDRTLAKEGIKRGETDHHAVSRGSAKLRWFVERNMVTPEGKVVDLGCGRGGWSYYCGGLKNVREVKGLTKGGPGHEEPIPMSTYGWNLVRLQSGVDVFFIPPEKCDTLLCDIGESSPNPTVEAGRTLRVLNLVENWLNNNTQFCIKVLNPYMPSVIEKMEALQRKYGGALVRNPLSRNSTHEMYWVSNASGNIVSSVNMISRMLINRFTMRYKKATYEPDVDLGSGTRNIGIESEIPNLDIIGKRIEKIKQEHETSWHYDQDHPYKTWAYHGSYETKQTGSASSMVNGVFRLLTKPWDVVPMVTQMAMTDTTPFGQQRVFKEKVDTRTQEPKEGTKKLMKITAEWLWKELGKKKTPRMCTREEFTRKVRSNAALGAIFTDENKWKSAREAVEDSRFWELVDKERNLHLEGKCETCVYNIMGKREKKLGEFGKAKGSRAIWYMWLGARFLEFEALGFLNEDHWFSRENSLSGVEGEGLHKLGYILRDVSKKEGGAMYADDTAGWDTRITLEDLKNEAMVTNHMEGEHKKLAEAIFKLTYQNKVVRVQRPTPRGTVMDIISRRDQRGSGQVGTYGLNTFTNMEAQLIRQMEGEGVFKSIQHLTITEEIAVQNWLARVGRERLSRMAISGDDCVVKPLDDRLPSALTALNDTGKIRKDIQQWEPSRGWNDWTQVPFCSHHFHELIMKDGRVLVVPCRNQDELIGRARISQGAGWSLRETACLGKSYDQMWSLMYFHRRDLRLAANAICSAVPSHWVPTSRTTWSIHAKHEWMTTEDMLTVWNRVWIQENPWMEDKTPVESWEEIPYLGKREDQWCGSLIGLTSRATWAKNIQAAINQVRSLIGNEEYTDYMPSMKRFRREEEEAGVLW
# [19] = target: T2, Long-chain-fatty-acid--AMP ligase FadD28 (Mycobacterium tuberculosis, UniProt P9WQ59); experiment: Fluorescence polarization aasay to screen for inhibitors that compete for the binding of FadD28 to a bisubstrate Measured in Biochemical System Using Plate Reader - 2147-01_Inhibitor_Dose_CherryPick_Activity.; format: functional, Mycobacterium tuberculosis H37Rv
# T2 sequence (P9WQ59 whole entry): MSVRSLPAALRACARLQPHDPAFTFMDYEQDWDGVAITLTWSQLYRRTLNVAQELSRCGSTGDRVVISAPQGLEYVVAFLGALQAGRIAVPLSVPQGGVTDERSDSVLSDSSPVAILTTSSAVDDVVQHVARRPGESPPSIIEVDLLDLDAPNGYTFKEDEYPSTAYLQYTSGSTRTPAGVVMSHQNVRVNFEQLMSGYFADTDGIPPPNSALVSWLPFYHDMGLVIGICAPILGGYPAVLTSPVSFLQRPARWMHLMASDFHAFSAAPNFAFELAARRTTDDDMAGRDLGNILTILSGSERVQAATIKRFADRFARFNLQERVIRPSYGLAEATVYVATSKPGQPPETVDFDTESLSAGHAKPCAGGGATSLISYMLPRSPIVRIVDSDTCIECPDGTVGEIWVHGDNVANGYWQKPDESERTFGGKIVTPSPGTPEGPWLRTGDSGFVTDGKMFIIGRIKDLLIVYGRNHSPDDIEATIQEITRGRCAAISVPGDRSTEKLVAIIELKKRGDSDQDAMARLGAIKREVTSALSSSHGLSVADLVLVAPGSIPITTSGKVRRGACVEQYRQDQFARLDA
# [20] = target: T3, Histone-lysine N-methyltransferase NSD2 (Homo sapiens, UniProt O96028); format: biochemical
# T3 sequence (O96028 whole entry): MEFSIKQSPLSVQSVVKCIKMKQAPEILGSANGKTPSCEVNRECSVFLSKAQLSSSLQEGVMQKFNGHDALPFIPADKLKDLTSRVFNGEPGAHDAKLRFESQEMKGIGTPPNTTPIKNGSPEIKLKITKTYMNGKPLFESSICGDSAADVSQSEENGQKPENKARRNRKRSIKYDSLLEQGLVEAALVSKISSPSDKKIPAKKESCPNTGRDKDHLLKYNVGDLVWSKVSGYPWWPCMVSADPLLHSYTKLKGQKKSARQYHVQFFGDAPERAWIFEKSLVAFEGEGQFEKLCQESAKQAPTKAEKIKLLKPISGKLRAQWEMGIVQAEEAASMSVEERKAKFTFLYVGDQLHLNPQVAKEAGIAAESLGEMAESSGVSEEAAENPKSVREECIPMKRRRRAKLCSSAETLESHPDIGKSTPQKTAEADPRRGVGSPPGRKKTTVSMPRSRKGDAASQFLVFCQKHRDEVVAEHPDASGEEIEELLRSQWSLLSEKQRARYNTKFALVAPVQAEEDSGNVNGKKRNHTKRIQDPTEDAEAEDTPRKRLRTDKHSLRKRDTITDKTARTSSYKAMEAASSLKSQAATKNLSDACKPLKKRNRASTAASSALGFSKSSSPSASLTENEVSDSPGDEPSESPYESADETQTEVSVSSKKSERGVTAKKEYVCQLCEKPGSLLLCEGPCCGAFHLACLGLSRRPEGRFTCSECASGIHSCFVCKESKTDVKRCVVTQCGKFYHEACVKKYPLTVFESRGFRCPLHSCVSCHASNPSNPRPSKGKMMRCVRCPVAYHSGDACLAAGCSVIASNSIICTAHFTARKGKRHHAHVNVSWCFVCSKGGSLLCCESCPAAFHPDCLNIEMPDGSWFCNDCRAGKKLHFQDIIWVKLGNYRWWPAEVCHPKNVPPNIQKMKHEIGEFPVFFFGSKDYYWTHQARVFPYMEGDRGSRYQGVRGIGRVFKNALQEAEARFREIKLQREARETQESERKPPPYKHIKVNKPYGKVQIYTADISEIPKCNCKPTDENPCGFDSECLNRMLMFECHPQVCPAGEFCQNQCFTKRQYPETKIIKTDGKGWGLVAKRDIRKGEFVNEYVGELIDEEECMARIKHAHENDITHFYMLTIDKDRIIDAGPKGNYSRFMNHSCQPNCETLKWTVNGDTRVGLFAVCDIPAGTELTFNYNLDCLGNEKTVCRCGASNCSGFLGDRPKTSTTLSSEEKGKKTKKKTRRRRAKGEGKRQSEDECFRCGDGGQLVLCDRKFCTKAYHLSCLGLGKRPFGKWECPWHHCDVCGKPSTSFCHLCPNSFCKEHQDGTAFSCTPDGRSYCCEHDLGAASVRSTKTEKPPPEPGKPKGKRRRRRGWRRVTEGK
# [21] = target: T4, Tyrosyl-DNA phosphodiesterase 2 (Homo sapiens, UniProt O95551); experiment: human TDP2 enzyme inhibitors, dose response, biochemical, epi absorbance, IC50 (AID 743297)
# T4 sequence (O95551 whole entry): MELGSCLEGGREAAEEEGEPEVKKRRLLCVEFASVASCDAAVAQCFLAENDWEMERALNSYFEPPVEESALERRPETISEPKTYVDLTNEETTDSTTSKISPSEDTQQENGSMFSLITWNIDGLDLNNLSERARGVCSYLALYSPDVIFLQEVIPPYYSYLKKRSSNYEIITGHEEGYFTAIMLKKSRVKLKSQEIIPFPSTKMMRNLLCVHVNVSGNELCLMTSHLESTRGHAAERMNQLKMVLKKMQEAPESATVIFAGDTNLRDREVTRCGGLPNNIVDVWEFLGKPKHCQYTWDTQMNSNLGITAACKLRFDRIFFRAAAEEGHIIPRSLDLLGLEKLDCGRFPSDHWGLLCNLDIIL
# Vero [22] = experiment: Vero cell cytotoxicity, cytotoxicity control for flavivirus capping enzyme inhibitors (AID 588742); format: functional; details: Chlorocebus sabaeus
# Phospholipase A2 = Phospholipase A2 (Homo sapiens, UniProt P04054); format: functional;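 also: confirmatory dose-response counterscreen on phospholipase A2, testing hits that came from an ultra-high-throughput screen for ATG4B inhibitors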
# Phospholipase A2, sequence (P04054 whole entry): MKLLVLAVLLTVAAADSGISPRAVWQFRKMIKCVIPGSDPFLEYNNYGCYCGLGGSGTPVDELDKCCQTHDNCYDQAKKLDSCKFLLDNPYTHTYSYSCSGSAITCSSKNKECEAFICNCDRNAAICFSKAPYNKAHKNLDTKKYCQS
# [23] = THP-1 cell cytotoxicity, dose response, cytotoxicity control for Vif-APOBEC3G degradation inhibitor project, THP-1 cells (AID 1117359); format: functional; details: Human immunodeficiency virus 1, THP-1
# [24] = target: Dual specificity tyrosine-phosphorylation-regulated kinase 1A (Rattus norvegicus, UniProt Q63470); format: biochemical, Homo sapiens
# [25] = Luminescence Cell-Based Dose Response HTS to Identify Activators of Luciferase Translation or Activity in H4 […] Cells. [Related pubchem assays: 1829 (Project Summary), 1814 (Primary HTS)]; format: functional
# [26] = Luminescence Cell-Based Dose Confirmation HTS to Identify Activators of 5'UTR Stem-Loop Driven Alpha-Synuclein mRNA Translation in H4 Neuroglioblastoma Cells. [Related pubchem assays: 1829 (Project Summary), 1814 (Primary HTS)]; format: functional
# H4 = experiment: Luminescence Cell-Based Dose Response HTS to Identify Activators of 5'UTR Stem-Loop Driven Prion Protein mRNA Translation in H4 Neuroglioblastoma Cells. [Related pubchem assays: 1829 (Project Summary), 1814 (Primary HTS)]; format: functional; details: Homo sapiens
# [27] = target: Heat shock protein HSP 90-alpha (Homo sapiens, UniProt P07900); experiment: Luminescence-based dose response biochemical high throughput screening assay for inhibitors of the Heat Shock Protein 90 (HSP90). [Related pubchem assays: 1831 (Summary AID.), 1846 (Confirmation screen.), 1789 (Primary screen.)]
# [28] = target: Photoreceptor-specific nuclear receptor (Homo sapiens, UniProt Q9Y5X4); experiment: NR2E3 inverse agonists, dose response, biochemical, TR-FRET (AID 463256); format: functional
# Photoreceptor-specific nuclear receptor, sequence (Q9Y5X4 whole entry): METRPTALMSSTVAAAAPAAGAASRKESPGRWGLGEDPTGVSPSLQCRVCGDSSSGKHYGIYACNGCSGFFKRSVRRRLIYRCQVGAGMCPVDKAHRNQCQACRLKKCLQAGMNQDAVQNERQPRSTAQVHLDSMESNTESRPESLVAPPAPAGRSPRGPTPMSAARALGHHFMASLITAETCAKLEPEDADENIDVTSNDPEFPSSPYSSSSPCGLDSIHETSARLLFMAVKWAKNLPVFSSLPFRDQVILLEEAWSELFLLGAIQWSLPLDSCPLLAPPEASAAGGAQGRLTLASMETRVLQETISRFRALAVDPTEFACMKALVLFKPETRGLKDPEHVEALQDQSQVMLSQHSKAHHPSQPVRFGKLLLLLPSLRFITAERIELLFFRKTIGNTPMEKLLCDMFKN
# [29] = target: Peroxisome proliferator-activated receptor gamma/Nuclear receptor corepressor 2 (Homo sapiens, UniProt P37231+Q9Y618); experiment: Counterscreen for NR2E3 inverse agonists: TR-FRET-based biochemical high throughput dose response assay to identify inverse agonists of the interaction between peroxisome proliferator-activated receptor gamma (PPARg) and nuclear receptor co-repressor 2 (NCOR2).; format: functional
# Peroxisome proliferator-activated receptor gamma/Nuclear receptor corepressor 2, sequence (P37231 whole entry): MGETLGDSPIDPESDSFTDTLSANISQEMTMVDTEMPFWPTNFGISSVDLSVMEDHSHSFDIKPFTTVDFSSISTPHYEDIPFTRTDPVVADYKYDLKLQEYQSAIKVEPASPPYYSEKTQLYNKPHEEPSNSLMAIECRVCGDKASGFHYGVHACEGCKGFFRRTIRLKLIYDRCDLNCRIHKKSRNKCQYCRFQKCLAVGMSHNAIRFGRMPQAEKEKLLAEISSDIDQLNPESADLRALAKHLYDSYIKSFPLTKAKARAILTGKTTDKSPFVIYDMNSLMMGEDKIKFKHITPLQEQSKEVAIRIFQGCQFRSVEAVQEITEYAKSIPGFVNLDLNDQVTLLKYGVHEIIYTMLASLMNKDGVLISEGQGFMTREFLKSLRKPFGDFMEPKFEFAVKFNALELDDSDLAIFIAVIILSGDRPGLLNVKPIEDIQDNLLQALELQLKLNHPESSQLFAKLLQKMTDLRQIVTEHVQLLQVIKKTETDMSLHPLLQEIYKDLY
# Peroxisome proliferator-activated receptor gamma/Nuclear receptor corepressor 2, sequence (Q9Y618 whole entry): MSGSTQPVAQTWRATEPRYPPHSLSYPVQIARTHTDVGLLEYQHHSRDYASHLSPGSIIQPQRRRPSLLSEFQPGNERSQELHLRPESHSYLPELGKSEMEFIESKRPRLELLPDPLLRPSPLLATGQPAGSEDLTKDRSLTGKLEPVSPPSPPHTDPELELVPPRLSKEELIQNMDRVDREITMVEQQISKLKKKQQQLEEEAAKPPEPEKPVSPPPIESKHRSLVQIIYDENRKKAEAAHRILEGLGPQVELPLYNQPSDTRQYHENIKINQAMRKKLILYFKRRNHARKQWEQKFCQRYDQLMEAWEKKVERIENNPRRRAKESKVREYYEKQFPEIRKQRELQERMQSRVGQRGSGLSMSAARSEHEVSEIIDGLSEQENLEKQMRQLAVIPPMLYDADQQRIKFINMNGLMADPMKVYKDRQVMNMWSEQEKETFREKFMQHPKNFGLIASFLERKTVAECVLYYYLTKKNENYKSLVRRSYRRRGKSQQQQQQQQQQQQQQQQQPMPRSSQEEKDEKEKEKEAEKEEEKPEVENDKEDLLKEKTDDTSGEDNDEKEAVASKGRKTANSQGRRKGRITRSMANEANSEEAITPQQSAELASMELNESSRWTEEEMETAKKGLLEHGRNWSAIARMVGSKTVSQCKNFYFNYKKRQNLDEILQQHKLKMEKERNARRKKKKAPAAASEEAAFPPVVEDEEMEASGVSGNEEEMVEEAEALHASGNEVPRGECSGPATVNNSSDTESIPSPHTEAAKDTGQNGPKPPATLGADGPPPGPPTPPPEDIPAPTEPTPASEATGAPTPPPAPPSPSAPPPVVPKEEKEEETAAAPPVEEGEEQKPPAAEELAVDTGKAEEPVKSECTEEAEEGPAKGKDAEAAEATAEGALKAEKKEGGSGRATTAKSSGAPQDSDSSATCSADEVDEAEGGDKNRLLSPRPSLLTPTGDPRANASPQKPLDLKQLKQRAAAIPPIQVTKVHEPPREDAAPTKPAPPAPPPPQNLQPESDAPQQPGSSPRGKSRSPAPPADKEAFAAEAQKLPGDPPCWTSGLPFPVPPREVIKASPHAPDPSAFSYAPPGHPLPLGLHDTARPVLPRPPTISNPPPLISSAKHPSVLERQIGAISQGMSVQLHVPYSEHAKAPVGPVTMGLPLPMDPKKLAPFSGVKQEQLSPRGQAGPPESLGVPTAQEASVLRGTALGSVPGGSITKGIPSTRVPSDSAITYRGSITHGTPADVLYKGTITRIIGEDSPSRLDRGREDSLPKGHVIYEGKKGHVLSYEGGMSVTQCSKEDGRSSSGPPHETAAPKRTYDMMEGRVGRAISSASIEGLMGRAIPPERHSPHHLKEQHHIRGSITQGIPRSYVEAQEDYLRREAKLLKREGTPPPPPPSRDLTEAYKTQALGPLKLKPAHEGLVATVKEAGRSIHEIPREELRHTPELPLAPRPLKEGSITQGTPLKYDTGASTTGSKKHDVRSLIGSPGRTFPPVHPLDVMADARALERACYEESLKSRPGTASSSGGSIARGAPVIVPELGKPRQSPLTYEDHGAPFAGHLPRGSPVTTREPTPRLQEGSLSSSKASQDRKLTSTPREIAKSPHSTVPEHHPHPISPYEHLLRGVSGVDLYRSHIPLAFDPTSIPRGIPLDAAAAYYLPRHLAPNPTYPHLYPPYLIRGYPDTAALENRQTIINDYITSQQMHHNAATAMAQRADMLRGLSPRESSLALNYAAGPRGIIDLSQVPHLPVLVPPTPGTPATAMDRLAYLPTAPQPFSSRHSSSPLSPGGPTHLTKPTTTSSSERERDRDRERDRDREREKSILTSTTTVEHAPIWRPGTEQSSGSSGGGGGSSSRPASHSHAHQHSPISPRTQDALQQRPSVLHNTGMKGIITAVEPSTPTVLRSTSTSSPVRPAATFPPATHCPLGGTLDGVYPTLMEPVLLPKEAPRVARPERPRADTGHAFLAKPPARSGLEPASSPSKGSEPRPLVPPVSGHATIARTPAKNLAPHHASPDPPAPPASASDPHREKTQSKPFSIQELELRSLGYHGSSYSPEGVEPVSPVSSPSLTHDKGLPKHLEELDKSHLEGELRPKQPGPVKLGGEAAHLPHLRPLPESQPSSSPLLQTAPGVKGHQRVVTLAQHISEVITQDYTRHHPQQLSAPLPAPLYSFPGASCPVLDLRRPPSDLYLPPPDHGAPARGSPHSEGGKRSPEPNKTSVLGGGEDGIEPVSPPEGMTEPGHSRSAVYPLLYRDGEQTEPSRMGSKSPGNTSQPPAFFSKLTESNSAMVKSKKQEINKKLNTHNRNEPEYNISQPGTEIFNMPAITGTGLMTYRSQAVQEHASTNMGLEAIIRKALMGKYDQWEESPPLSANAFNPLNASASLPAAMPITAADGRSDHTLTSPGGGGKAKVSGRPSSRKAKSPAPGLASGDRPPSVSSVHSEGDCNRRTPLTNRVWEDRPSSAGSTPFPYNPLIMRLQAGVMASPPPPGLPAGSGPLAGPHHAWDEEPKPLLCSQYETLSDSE
# Cytochrome P450 2C19 = Cytochrome P450 2C19 (Homo sapiens, UniProt P33261); experiment: qHTS Assay for Inhibitors and Substrates of Cytochrome P450 2C19. [Related pubchem assays: 410 ]; format: ADME; details: read-out: Potency
# [30] = M. tuberculosis growth inhibition, HTS (AID 449762); format: functional
structure (smiles),measurement,setting,value
CCc1cccc(N(C)C(=N)Nc2cccc3ccccc23)c1 [APTIGANEL HYDROCHLORIDE],IC50,[1],> 20 µM (inactive)
same,IC50,[2],> 20 µM (inactive)
same,IC50,[3],> 20 µM (inactive)
same,IC50,[4],> 20 µM (inactive)
same,IC50,[5],> 20 µM (inactive)
same,IC50,[6],> 20 µM (inactive)
same,IC50,[7],> 20 µM (inactive)
COc1cc2nc(-c3cccc(F)c3)cc(O)c2cc1OC,EC50,[8],5.44 µM (active)
NCC(=O)Nc1ccc(-n2nc(C(F)(F)F)cc2-c2ccc3c(ccc4ccccc43)c2)cc1 [AR-12],AC50,[9],8.29 µM (active)
same,AC50,[10],18.3 µM (active)
same,AC50,cells [11],4.39 µM (active)
Cc1cc(C)cc(SCc2noc(C(=O)NCCN(C)C)c2C(=O)NCCN(C)C)c1,IC50,Vero [12],26.9 µM (active)
CCOC(=O)c1ccc2[nH]c3c(c2c1)CCCCC3=O,IC50,[13],> 93.1 µM (not active)
Nc1c2c(nc3c1CCC3)CCCC2,IC50,cells [14],> 33.3 µM (inactive)
same,IC50,[15],11.7 µM (inactive)
CCOC(=O)c1c(NC(=O)CN2CCN(C)CC2)sc(C)c1-c1ccc(C)cc1,AC50,[16],1.74 µM (active)
same,AC50,[17],16.7 µM (active)
CN1CCN(C2=C(Cl)C(=O)c3ccccc3C2=O)CC1,IC50,Cysteine protease ATG4B,2.02 µM (active)
same,IC50,[18],> 100 µM (active)
same,IC50,Genome polyprotein,6.33 µM (active)
same,AC50,[19],> 100 µM (inactive)
same,AC50,[20],0.108 µM (active)
same,IC50,[21],0.581 µM (active)
same,CC50,Vero [22],11.8 µM (active)
same,IC50,Phospholipase A2,58.9 µM (inactive)
same,CC50,[23],6.22 µM (active)
same,AC50,[24],1.03 µM (active)
Cc1cc(NO)nc(-c2ccc(Br)cc2)n1,EC50,[25],22.8 µM (active)
same,EC50,[26],0.405 µM (active)
same,EC50,H4,40.2 µM (active)
same,IC50,[27],0.728 µM (active)
CCN(CC)S(=O)(=O)c1ccc(OC)c(NC(=O)COc2ccc3c(C)cc(=O)oc3c2)c1,IC50,[28],2.35 µM (active)
same,IC50,[29],2.14 µM (active)
O=c1cc(-c2cccc(O)c2)oc2c(O)c(O)ccc12,AC50,Cytochrome P450 2C19,15.8 µM (inconclusive)
CC(=O)CCSc1ncnc2sc(-c3ccccc3)cc12,IC50,[30],> 100 µM (active)
